# Tested on: endometrium in estrogen-primed immature rabbits
# Test: anti-McPhail test (antagonistic, anti-progestational activity)
# Format: in vivo, rabbit
# Settings: 0-4 scale; 7 days with progesterone; RU486 4 mg/kg/day, Org 214007-0 0.5 mg/kg/day oral; n=2
# Method: For the anti-McPhail test, the estrogen-primed rabbits were subsequently treated for 7 days with inducer progesterone (0.25 mg/kg/day s.c.) in combination with an oral treatment of either placebo, reference RU486 (4 mg/kg/day) or Org 214007-0 (0.5 mg/kg/day). The uterus preparation and evaluation of the endometrium was performed as described above.
# For the antagonistic test, after oestrogen priming, rabbits were treated for 7 days with progesterone and placebo, reference RU486 or Org 214007-0. One day after the last treatment the uterus was dissected and endometrial development was scored on a 0-4 scale. […] After treatment with Org 214007-0 no reduction of the endometrial transformation was observed (score 3.31), indicative for no anti-progestagenic activity
compound,measurement,value
Cc1nnsc1C(=O)N[C@H]1CCN2c3ccc(C#N)cc3[C@@H](C)c3ccccc3[C@@H]2C1 [Org 214007-0],"endometrial development score, antagonistic test",3.31
